Measured values taken from PMC5373689 (Science (New York, N.Y.), 2016).

Key:
[1] = biological target: CatSper (Homo sapiens, UniProt Q7RTX7+Q86XQ3+Q8NEC5+Q96P56); experiment: whole-cell patch clamp of human spermatozoa; type: cell-based
[2] = biological target: T1, α/β hydrolase domain–containing protein 2 (ABHD2) (Homo sapiens, UniProt P08910); experiment: monoacylglycerol hydrolysis by recombinant ABHD2; type: cell-based
T1 sequence (P08910 1-425): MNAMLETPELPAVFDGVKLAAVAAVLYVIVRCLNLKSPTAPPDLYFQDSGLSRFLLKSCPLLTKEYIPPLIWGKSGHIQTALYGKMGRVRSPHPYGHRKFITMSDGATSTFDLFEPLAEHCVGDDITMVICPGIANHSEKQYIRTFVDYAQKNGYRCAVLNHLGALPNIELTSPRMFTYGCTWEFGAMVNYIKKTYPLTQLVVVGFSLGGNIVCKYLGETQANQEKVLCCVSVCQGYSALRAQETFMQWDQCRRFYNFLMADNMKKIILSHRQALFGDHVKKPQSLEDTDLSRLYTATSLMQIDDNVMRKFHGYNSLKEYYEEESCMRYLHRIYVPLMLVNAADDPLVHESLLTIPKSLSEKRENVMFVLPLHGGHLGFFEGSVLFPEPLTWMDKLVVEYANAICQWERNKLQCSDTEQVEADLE

CatSper, sequence (Q8NEC5 whole entry, the tested form may be a part): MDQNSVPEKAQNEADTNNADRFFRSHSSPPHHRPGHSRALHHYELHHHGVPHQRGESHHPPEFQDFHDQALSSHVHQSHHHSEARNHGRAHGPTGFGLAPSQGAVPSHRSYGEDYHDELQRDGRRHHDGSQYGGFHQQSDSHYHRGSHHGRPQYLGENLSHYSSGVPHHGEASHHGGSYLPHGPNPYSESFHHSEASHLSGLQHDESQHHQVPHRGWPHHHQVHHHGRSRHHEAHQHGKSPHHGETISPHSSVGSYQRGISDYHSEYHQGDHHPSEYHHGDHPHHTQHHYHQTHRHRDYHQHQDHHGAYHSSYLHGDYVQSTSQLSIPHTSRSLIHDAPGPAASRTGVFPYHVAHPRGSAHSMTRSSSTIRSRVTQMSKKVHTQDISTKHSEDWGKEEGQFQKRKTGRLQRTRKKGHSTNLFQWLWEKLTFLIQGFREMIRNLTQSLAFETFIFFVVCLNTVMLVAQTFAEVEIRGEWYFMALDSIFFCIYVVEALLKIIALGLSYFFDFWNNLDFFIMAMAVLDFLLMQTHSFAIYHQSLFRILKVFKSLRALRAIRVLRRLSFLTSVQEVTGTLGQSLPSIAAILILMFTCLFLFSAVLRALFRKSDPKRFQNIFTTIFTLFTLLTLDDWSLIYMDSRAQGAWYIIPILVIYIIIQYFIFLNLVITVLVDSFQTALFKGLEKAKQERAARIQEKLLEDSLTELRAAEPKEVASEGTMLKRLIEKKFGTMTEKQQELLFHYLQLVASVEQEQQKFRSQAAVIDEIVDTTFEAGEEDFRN
CatSper, sequence (Q96P56 whole entry, the tested form may be a part): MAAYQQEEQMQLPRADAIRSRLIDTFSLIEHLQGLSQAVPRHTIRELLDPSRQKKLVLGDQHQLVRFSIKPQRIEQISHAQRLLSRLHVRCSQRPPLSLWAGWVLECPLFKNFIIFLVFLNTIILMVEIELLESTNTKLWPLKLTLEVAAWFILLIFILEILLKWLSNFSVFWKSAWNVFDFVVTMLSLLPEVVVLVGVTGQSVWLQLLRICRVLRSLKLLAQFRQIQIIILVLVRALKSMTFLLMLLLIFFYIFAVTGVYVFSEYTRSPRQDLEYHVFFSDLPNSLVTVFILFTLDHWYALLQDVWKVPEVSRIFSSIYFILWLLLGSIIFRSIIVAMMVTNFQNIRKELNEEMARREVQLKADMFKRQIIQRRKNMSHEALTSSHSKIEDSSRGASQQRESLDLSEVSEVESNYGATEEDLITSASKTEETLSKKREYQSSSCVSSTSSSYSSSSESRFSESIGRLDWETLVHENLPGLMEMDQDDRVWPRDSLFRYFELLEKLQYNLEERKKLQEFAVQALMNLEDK
CatSper, sequence (Q86XQ3 whole entry, the tested form may be a part): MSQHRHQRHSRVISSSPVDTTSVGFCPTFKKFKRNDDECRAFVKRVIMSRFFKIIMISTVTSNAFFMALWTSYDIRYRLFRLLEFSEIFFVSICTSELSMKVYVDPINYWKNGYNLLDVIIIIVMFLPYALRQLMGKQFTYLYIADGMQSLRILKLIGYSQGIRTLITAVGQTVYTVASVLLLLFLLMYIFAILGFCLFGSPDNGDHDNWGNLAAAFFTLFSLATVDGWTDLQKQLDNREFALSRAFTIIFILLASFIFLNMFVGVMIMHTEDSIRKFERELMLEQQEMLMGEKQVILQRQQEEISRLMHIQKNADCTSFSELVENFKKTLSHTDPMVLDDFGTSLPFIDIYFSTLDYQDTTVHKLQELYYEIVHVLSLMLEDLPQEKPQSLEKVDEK
CatSper, sequence (Q7RTX7 whole entry, the tested form may be a part): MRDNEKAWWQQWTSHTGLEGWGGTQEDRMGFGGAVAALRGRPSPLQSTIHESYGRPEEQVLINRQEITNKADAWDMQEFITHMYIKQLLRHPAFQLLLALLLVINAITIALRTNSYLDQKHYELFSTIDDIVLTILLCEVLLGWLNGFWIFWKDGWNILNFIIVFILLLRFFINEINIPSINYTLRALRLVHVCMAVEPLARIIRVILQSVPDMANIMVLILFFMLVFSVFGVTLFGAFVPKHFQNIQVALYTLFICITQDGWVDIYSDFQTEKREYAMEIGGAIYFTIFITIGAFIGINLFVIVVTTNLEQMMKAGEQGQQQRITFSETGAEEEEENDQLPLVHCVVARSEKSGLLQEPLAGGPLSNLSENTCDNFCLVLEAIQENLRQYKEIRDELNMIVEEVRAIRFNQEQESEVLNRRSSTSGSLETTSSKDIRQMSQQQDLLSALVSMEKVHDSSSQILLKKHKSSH

Compound	whole-cell patch clamp of human spermatozoa [1]	monoacylglycerol hydrolysis by recombinant ABHD2 (free glycerol production) with [2]
CCCCC/C=C\C/C=C\C/C=C\C/C=C\CCCC(=O)OCC(O)CO (centres unmarked) [1AG, 1-arachidonoylglycerol]	whereas 1AG and 2AG (AGs) inhibited ICatSper	
CCCCC/C=C\C/C=C\C/C=C\C/C=C\CCCC(=O)OC(CO)CO [2AG, 2-arachidonoylglycerol]		ABHD2, which metabolizes endocannabinoids 1AG and 2AG only in the presence of progesterone
